According to patent publication US20240300935A1, “Nitrogen Oxide Donors of Beraprost Derivative and the Pharmaceutical Compositions with the Use Thereof” (GUANGZHOU KEMROCMED CO., LTD., priority 2021, published 2024):

Key:
[1] = In vitro NO release test (Griess method); conditions: 200 μM test compound solution mixed with 200 μM L-cysteine solution, 37° C.
Experimental: NO was transiently oxidized in aqueous solution using released NO by Griess' method, NO^2− And Griess reagent form a complex, which has strong UV uptake at 540 nm to determine the amount of NO released by the compound. • 1) Preparation of solution: blank solution: 10 mL DMSO and 190 m L PBS mixed; G riess Reagent: sulfonamide (4.0 g), N-(1-naphthalyl) ethylenediamine dihydrochloride (0.2 g) and 10 mL 85% H3PO4 dissolved in 90 mL of distilled water, Blow until clear solution; L-cysteine solution: after accurate weighing of L-cysteine, Add a certain amount of PBS, Prepare a weighed 200 μM solution; Test compound solution: the exact weighing of the test compound, Dissolved in D MSO and diluted to a concentration of 1 mM, Then, when diluted in PBS, To a concentration of 200 μM.
2) Formulation of standard curve equation: prepare sodium nitrite solution concentration: 0 ,0 , 1, 3, 6, 12.5, 25, 50, 100 μmol/L, 150 μL of each concentration, add 50 μL of Griess reagent mix, incubated in 37° C. constant temperature shaker for 30 min, the plate reader measured each tube absorbance at 540 nm, after subtracting the blank solution reading, the standard curve equation . . . 78.56.13.25 • 3) Test compound test: mix 2 mL of the test compound solution and L-cysteine solution, incubate in 37° C. constant temperature shakers for 120 min, take 150 μL of each mixture, add 50 μL of Griess reagent, then incubate in 37° C. constant temperature shaker for 30 min, the microplate measured each tube absorbance at 540 nm, then subtract the blank solution reading and substitute the value into the standard curve equation to obtain NO release.

[2] = tested on: platelet aggregation induced by ADP; assay: Antiplatelet aggregation effect, ADP-induced, turbidimetry in platelet-rich plasma; type: cell-based; conditions: Homo sapiens, 2 min; platelet rich plasma of healthy subjects; 25 μL of 50 nM compound solution in 225 μL plasma, 37° C. 2 min; ADP final 2 μM; read-out: The rate of platelet aggregation inhibition
Experimental: • 1) Experimental material: ADP, epinephrine, collagen (bilBio) • 2) Experimental method: blood samples provided by healthy subjects were mixed blood with 3.8% citric acid solution and centrifuged at 160 r/min to obtain platelet-rich plasma. To calibrate the data, the obtained platelet-rich plasma was further centrifuged at 2000 r/min to obtain platelet-poor plasma, stored in a −20° C. refrigerator. Testing was performed using Born I's turbiometry. 225 μL of platelet rich plasma was added to the reaction cup, the embodiment compound was configured as 50 nM solution (25 m M Tris-acetate and 120 m M N a Cl), 25 μL of embodiment compound solution was added and after incubation at 37° C. for 2 min, 5 μL of ADP (final concentration 2 μM) was added for platelet aggregation induction. To assess the degree of platelet aggregation, the maximum absorbance value took the data after ADP, thus calculating the inhibition rate of ADP-induced platelet aggregation by each embodiment compound. According to the data in Table 6 below, the compounds of the present application embodiment all have a good effect of inhibiting the platelet aggregation induced by ADP.

| SMILES | 120 min NO^2− [1] [µM] | inhibition at 0.005 µM [2] [%] |
| --- | --- | --- |
| CC#CCC(C)[C@@H](O)/C=C/[C@H]1[C@@H]2c3cccc(CCCC(=O)OCOC(=O)CCCO[N+](=O)[O-])c3O[C@@H]2C[C@@H]1O (stereo partly shown) [Compound 12] | 8.5 | 42 |
| CC#CCC(C)[C@@H](O)/C=C/[C@H]1[C@@H]2c3cccc(CCCC(=O)OCOC(=O)O[N+](=O)[O-])c3O[C@@H]2C[C@@H]1O (stereo partly shown) [Compound 9] | 18.2 | 52 |
| CC#CCC(C)[C@@H](O)/C=C/[C@H]1[C@@H]2c3cccc(CCCC(=O)OCCOC(=O)C(C)CO[N+](=O)[O-])c3O[C@@H]2C[C@@H]1O (stereo partly shown) [Compound 21] | 11.1 | 81 |
| CC#CCC(C)[C@@H](O)/C=C/[C@H]1[C@@H]2c3cccc(CCCC(=O)OCCCOC(=O)c4cccc(CO[N+](=O)[O-])c4)c3O[C@@H]2C[C@@H]1O (stereo partly shown) [Compound 26] | 12.6 | 22 |
| CC#CCC(C)[C@@H](O)/C=C/[C@H]1[C@@H]2c3cccc(CCCC(=O)OCCOCCO[N+](=O)[O-])c3O[C@@H]2C[C@@H]1O (stereo partly shown) [Compound 8] | 14.8 | 61 |
| CC#CCC(C)[C@@H](O)/C=C/[C@H]1[C@@H]2c3cccc(CCCC(=O)OCCCCCCO[N+](=O)[O-])c3O[C@@H]2C[C@@H]1O (stereo partly shown) [Compound 5] | 11.8 | 64 |
| CC#CCC(C)[C@@H](O)/C=C/[C@H]1[C@@H]2c3cccc(CCCC(=O)OCCCc4ccc(CO[N+](=O)[O-])cc4)c3O[C@@H]2C[C@@H]1O (stereo partly shown) [Compound 11] | 10.1 | 67 |
| CC#CCC(C)[C@@H](O)/C=C/[C@H]1[C@@H]2c3cccc(CCCC(=O)OCCCCOC(=O)CO[N+](=O)[O-])c3O[C@@H]2C[C@@H]1O (stereo partly shown) [Compound 23] | 15.5 | 56 |
| CC#CCC(C)[C@@H](O)/C=C/[C@H]1[C@@H]2c3cccc(CCCC(=O)OCCOC(=O)CO[N+](=O)[O-])c3O[C@@H]2C[C@@H]1O (stereo partly shown) [Compound 17] | 7.6 | 59 |
| CC#CCC(C)[C@@H](O)/C=C/[C@H]1[C@@H]2c3cccc(CCCC(=O)OCOc4c(S(=O)(=O)c5ccccc5)no[n+]4[O-])c3O[C@@H]2C[C@@H]1O (stereo partly shown) [Compound 32] | 20.4 | 55 |
| CC#CCC(C)[C@@H](O)/C=C/[C@H]1[C@@H]2c3cccc(CCCC(=O)OCOCC(CO[N+](=O)[O-])O[N+](=O)[O-])c3O[C@@H]2C[C@@H]1O (stereo partly shown) [Compound 30] | 17.8 | 52 |
| CC#CCC(C)[C@@H](O)/C=C/[C@H]1[C@@H]2c3cccc(CCCC(=O)OCOC(=O)CCO[N+](=O)[O-])c3O[C@@H]2C[C@@H]1O (stereo partly shown) [Compound 10] | 11.3 | 54 |
| CC#CCC(C)[C@@H](O)/C=C/[C@H]1[C@@H]2c3cccc(CCCC(=O)OCCCCc4ccc(CO[N+](=O)[O-])cc4)c3O[C@@H]2C[C@@H]1O (stereo partly shown) [Compound 13] | 10.1 | 61 |
| CC#CCC(C)[C@@H](O)/C=C/[C@H]1[C@@H]2c3cccc(CCCC(=O)OCCCOC(=O)CCCO[N+](=O)[O-])c3O[C@@H]2C[C@@H]1O (stereo partly shown) [Compound 22] | 13.7 | 52 |
| CC#CCC(C)[C@@H](O)/C=C/[C@H]1[C@@H]2c3cccc(CCCC(=O)OCOC(=O)CCCCO[N+](=O)[O-])c3O[C@@H]2C[C@@H]1O (stereo partly shown) [Compound 16] | 12.1 | 81 |
| CC#CCC(C)[C@@H](O)/C=C/[C@H]1[C@@H]2c3cccc(CCCC(=O)OCCCOC(=O)CCO[N+](=O)[O-])c3O[C@@H]2C[C@@H]1O (stereo partly shown) [Compound 18] | 8.0 | 66 |

| SMILES | 120 min NO^2− [1] [µM] | inhibition at 0.005 µM [2] [%] |
| --- | --- | --- |
| CC#CCC(C)[C@@H](O)/C=C/[C@H]1[C@@H]2c3cccc(CCCC(=O)OCCCCOC(=O)c4cccc(CO[N+](=O)[O-])c4)c3O[C@@H]2C[C@@H]1O (stereo partly shown) [Compound 27] | 11.9 | 35 |
| CC#CCC(C)[C@@H](O)/C=C/[C@H]1[C@@H]2c3cccc(CCCC(=O)OCCOc4no[n+]([O-])c4S(=O)(=O)c4ccccc4)c3O[C@@H]2C[C@@H]1O (stereo partly shown) [Compound 33] | 14.2 | 82 |
| CC#CCC(C)[C@@H](O)/C=C/[C@H]1[C@@H]2c3cccc(CCCC(=O)OCCCCOC(=O)CCO[N+](=O)[O-])c3O[C@@H]2C[C@@H]1O (stereo partly shown) [Compound 19] | 11.3 | 69 |
| CC#CCC(C)[C@@H](O)/C=C/[C@H]1[C@@H]2c3cccc(CCCC(=O)OCCOC(=O)c4cccc(CO[N+](=O)[O-])c4)c3O[C@@H]2C[C@@H]1O (stereo partly shown) [Compound 25] | 10.7 | 35 |
| CC#CCC(C)[C@@H](O)/C=C/[C@H]1[C@@H]2c3cccc(CCCC(=O)OCCCCCO[N+](=O)[O-])c3O[C@@H]2C[C@@H]1O (stereo partly shown) [Compound 4] | 14.1 | 43 |
| CC#CCC(C)[C@@H](O)/C=C/[C@H]1[C@@H]2c3cccc(CCCC(=O)OCOC(=O)Cc4ccc(CO[N+](=O)[O-])cc4)c3O[C@@H]2C[C@@H]1O (stereo partly shown) [Compound 24] | 15.8 | 47 |
| CC#CCC(C)[C@@H](O)/C=C/[C@H]1[C@@H]2c3cccc(CCCC(=O)OCCCCO[N+](=O)[O-])c3O[C@@H]2C[C@@H]1O (stereo partly shown) [Compound 3] | 16.6 | 57 |
| CC#CCC(C)[C@@H](O)/C=C/[C@H]1[C@@H]2c3cccc(CCCC(=O)OCCCOCC(CO[N+](=O)[O-])O[N+](=O)[O-])c3O[C@@H]2C[C@@H]1O (stereo partly shown) [Compound 31] | 16.7 | 67 |
| CC#CCC(C)[C@@H](O)/C=C/[C@H]1[C@@H]2c3cccc(CCCC(=O)OCCO[N+](=O)[O-])c3O[C@@H]2C[C@@H]1O (stereo partly shown) [Compound 1] | 15.5 | 78 |
| CC#CCC(C)[C@@H](O)/C=C/[C@H]1[C@@H]2c3cccc(CCCC(=O)OCOCCO[N+](=O)[O-])c3O[C@@H]2C[C@@H]1O (stereo partly shown) [Compound 6] | 17.8 | 39 |
| CC#CCC(C)[C@@H](O)/C=C/[C@H]1[C@@H]2c3cccc(CCCC(=O)OCCCO[N+](=O)[O-])c3O[C@@H]2C[C@@H]1O (stereo partly shown) [Compound 2] | 14.3 | 66 |
| CC#CCC(C)[C@@H](O)/C=C/[C@H]1[C@@H]2c3cccc(CCCC(=O)OCOCCCO[N+](=O)[O-])c3O[C@@H]2C[C@@H]1O (stereo partly shown) [Compound 7] | 17.7 | 44 |
| CC#CCC(C)[C@@H](O)/C=C/[C@H]1[C@@H]2c3cccc(CCCC(=O)OCCOC(=O)CCO[N+](=O)[O-])c3O[C@@H]2C[C@@H]1O (stereo partly shown) [Compound 20] | 10.0 | 45 |
| CC#CCC(C)[C@@H](O)/C=C/[C@H]1[C@@H]2c3cccc(CCCC(=O)OCC(CO[N+](=O)[O-])CO[N+](=O)[O-])c3O[C@@H]2C[C@@H]1O (stereo partly shown) [Compound 28] | 14.8 | 47 |
| CC#CCC(C)[C@@H](O)/C=C/[C@H]1[C@@H]2c3cccc(CCCC(=O)OCCC4CCC(CO[N+](=O)[O-])CC4)c3O[C@@H]2C[C@@H]1O (stereo partly shown) [Compound 14] | 9.6 | 48 |
| CC#CCC(C)[C@@H](O)/C=C/[C@H]1[C@@H]2c3cccc(CCCC(=O)OCCC(CO[N+](=O)[O-])CO[N+](=O)[O-])c3O[C@@H]2C[C@@H]1O (stereo partly shown) [Compound 29] | 16.2 | 56 |
